Data: US20240240224A1, “FLUORESCENT D-TYPE AMINO ACID METABOLISM MARKER-BASED METHOD FOR DETECTING ANTIBACTERIAL DRUG SENSITIVITY TEST” (priority 2020, published 2024)
Converted amounts (≈) assume the structure as drawn.

Tests used:
S. aureus ST398 [1] = experiment: FDAA metabolic labeling susceptibility test (Cy5-DAA probe, flow cytometry); type: cell-based; conditions: Staphylococcus aureus, ST398, 2 h, read-out: MIC, FDAA
Experimental: (§1) Take the colony to be tested that has been cultured overnight on the plate and fully mix it in normal saline to make a uniform bacterial solution. Dilute it into Cation-Adjusted Mueller Hinton Broth (CAMHB) culture medium to make a bacterial solution with OD600=0.05. • 2. Add 45 μl antibiotic solutions of different concentrations to 96-well plates (see Table 1 for antibiotic concentration gradient settings). • 3. Add 50 μl of the bacterial solution prepared in step 1 to the 96-well plate and mix well. • 4. Add 5 μl of 10 mM Cy5-DAA probe (final concentration 0.15 mM, see FIG. 1 for its structure) into each well, mix well, and cultivate in dark for 2 hours. • 5. Add 200 μl After PBS solution is diluted, the fluorescence intensity of each sample is detected by flow cytometry. The flow detection results are shown in FIG. 4-5, showing the curve of the change of antibiotic concentration gradient and fluorescence intensity. The MIC (minimum inhibitory concentration) can be obtained by referring to this curve.

S. aureus ST59 [2] = experiment: as above; type: cell-based; conditions: Staphylococcus aureus, ST59, 2 h, read-out: MIC, FDAA
Experimental: as §1

S. aureus ST5 [3] = experiment: as above; type: cell-based; conditions: Staphylococcus aureus, ST5, 2 h, read-out: MIC, FDAA
Experimental: as §1

S. aureus ST5 [4] = experiment: Vitek 2 drug sensitivity test; type: cell-based, Staphylococcus aureus; on Sensibility: key: S: Drug sensitive; R: Drug resistance
S. aureus ST59 [5] = experiment: Vitek 2 drug sensitivity test; type: cell-based, Staphylococcus aureus; on Sensibility: key: S: Drug sensitive; R: Drug resistance
S. aureus ST398 [6] = experiment: Vitek 2 drug sensitivity test; type: cell-based, Staphylococcus aureus; on Sensibility: key: S: Drug sensitive; R: Drug resistance
S. aureus Sa22 [7] = experiment: BMD susceptibility test; type: cell-based, Staphylococcus aureus; conditions: unit assumed
S. aureus ATCC29213 [8] = experiment: FaAST (FDAA metabolic labeling method); type: cell-based, Staphylococcus aureus; conditions: unit assumed
Experimental: as §1
(§2) Bacteria with antibiotic resistance are shown in bold in the following table.

S. aureus Sa22 [9] = experiment: FaAST (FDAA metabolic labeling method); type: cell-based, Staphylococcus aureus; conditions: unit assumed
Experimental: as §1, §2

S. aureus Sa23 [10] = experiment: FaAST (FDAA metabolic labeling method); type: cell-based, Staphylococcus aureus; conditions: unit assumed
Experimental: as §1, §2

S. aureus Sa23 [11] = experiment: BMD susceptibility test; type: cell-based, Staphylococcus aureus; conditions: unit assumed
S. aureus ATCC29213 [12] = experiment: BMD susceptibility test; type: cell-based, Staphylococcus aureus; conditions: unit assumed
E. faecium Ef26 [13] = experiment: BMD susceptibility test; type: cell-based, Enterococcus faecium; conditions: unit assumed
E. faecium Ef26 [14] = experiment: FaAST (FDAA metabolic labeling method); type: cell-based, Enterococcus faecium; conditions: unit assumed
Experimental: as §1, §2

E. faecium Ef28 [15] = experiment: FaAST (FDAA metabolic labeling method); type: cell-based, Enterococcus faecium; conditions: unit assumed
Experimental: as §1, with “The flow detection results are shown in FIG. 4-5, showing the curve of the change of antibiotic concentration gradient and fluorescence intensity.” left out

E. faecalis ATCC29212 [16] = experiment: BMD susceptibility test; type: cell-based, Enterococcus faecalis; conditions: unit assumed
E. faecalis ATCC29212 [17] = experiment: FaAST (FDAA metabolic labeling method); type: cell-based, Enterococcus faecalis; conditions: unit assumed
Experimental: as §1, §2

S. aureus ATCC29213 [18] = conditions: cited from earlier work
E. faecalis ATCC29212 [19] = conditions: cited from earlier work
E. faecium Ef28 [20] = experiment: BMD susceptibility test; type: cell-based, Enterococcus faecium; conditions: unit assumed

Row | Compound | BMD (MIC) (S. aureus Sa22 [7]) | FaAST (MIC) (S. aureus ATCC29213 [8]) | FaAST (MIC) (S. aureus Sa22 [9]) | FaAST (MIC) (S. aureus Sa23 [10]) | BMD (MIC) (S. aureus Sa23 [11]) | BMD (MIC) (S. aureus ATCC29213 [12]) | BMD (MIC) (E. faecium Ef26 [13]) | FaAST (MIC) (E. faecium Ef26 [14]) | FaAST (MIC) (E. faecium Ef28 [15]) | BMD (MIC) (E. faecalis ATCC29212 [16]) | FaAST (MIC) (E. faecalis ATCC29212 [17]) | CLSI QC range (S. aureus ATCC29213 [18]) | CLSI QC range (E. faecalis ATCC29212 [19]) | also measured
1 | CN[C@H](CC(C)C)C(=O)N[C@H]1C(=O)N[C@@H](CC(N)=O)C(=O)N[C@H]2C(=O)N[C@H]3C(=O)N[C@H](C(=O)N[C@H](C(=O)O)c4cc(O)cc(O)c4-c4cc3ccc4O)[C@H](O)c3ccc(c(Cl)c3)Oc3cc2cc(c3O[C@@H]2O[C@H](CO)[C@@H](O)[C@H](O)[C@H]2O[C@H]2C[C@](C)(N)[C@H](O)[C@H](C)O2)Oc2ccc(cc2Cl)[C@H]1O [Vancomycin, vancomycin] | 1 µg/mL | 1 µg/mL | 2 µg/mL | 2 µg/mL | 1 µg/mL | 1 µg/mL | 0.5 µg/mL | 0.25 µg/mL | 32 µg/mL | 2 µg/mL | 2 µg/mL | 0.5-2 | 1-4 | MIC (S. aureus ST398 [1]): 2 µg/mL (≈ 1.38 µM); MIC (S. aureus ST59 [2]): 2 µg/mL (≈ 1.38 µM); MIC (S. aureus ST5 [3]): 4 µg/mL (≈ 2.76 µM); Sensibility (S. aureus ST5 [4]): S; MIC (S. aureus ST5 [4]; Staphylococcus aureus): 1 µg/mL (≈ 0.69 µM); Sensibility (S. aureus ST59 [5]): S; MIC (S. aureus ST59 [5]; Staphylococcus aureus): 1 µg/mL (≈ 0.69 µM); Sensibility (S. aureus ST398 [6]): S; MIC (S. aureus ST398 [6]; Staphylococcus aureus): ≤ 0.5 µg/mL
2 | teicoplanin | 0.5 µg/mL | 0.25 µg/mL | 1 µg/mL | 1 µg/mL | 0.5 µg/mL | ≤ 0.25 µg/mL | 0.5 µg/mL | 0.25 µg/mL | 32 µg/mL | ≤ 0.25 µg/mL | 0.5 µg/mL | 0.25-1^ | 0.25-1 | BMD (MIC) (E. faecium Ef28 [20]): 16 µg/mL
